Assay results taken from patent US5545648A (Canadian Spinal Research Organization, priority 1992, dated 1996).
“And” between values parts separate entries of the source, which are not always exact repeats. Equal values may be shown once. “Also recorded” adds a separate entry of the source.

Experiments:
[1] = Plasma levels of 4-AP after intravenous infusion (column liquid chromatography); assay type: in vivo, human
Experimental: The drug was obtained in purified powder form from the Regis Chemical Company (Morton Grove, Ill.) and prepared as an injectable solution, using a 0.9% saline vehicle (Uges and Huizinga, 1981), by the pharmacy of St. Joseph's Hospital. The pharmacy was also responsible for testing pyrogenicity, randomizing the order in which drug and vehicle were administered to different patients, and for providing an escalating scale of dosage during the course of the study. The 4-AP for the first two patients was prepared at a concentration of 3 mg/ml, and the concentration was increased to 4 and 5 mg/ml for succeeding subjects (see Table 1). The drug was further diluted by a factor of 50 times in dextrose saline before delivery, and was administered in the form of a continuous intravenous infusion at a rate of 150 ml/hr controlled by a peristaltic infusion pump. Therefore the delivery rate of the drug increased from 9 mg/hr in the first two patients to 15 mg/hr in the last four. Total intended dosage ranged from 18 to 30 mg. The vehicle control was indistinguishable from the drug solution and was delivered in an identical manner.
(§1) The schedule of each trial was the same. The patient was admitted to the hospital on the preceding day and in the early morning was assessed by neurological examination and electro-diagnostic evaluation. Administration of the drug or placebo, through an in dwelling venous catheter, was then begun and continued for approximately 2 hours, arranged in 20 minute sequences based on delivery of 1 ml aliquots of the 4-AP solution. The patient was monitored electroencephalographically at frequent intervals throughout the procedure. Samples of blood and urine were obtained from an additional intravenous catheter and from the urinary catheter respectively. Blood was obtained at intervals up to 5 hours from the beginning of drug delivery and urine obtained pre-infusion and at 1 and 2 hours after the beginning of infusion. The patients were re-evaluated by complete neurological examination, by the same examiner, at the end of the period of drug delivery. They were then re-examined with the electrodiagnostic tests. A more limited neurological examination was sometimes performed during drug delivery in an attempt to identify any early changes, without producing significant testing fatigue. The electrodiagnostic tests were repeated at 2 hours after the cessation of drug delivery. Patients showing apparent effects of the treatment remained in the hospital overnight and were examined on the following day. Subsequent contact with the patients was by telephone interview or as a result of their correspondence regarding longer term changes associated with their treatment.
(§2) Two of the patients who reported more prolonged effects of the drug were returned to the hospital after 4 months for a second, unblinded trial, which included neurological examinations daily for 3-4 days. Plasma samples were also obtained daily from these two patients, for measurement of 4-AP.
Measurement of 4-AP in plasma and urine
Samples of blood were collected from an in dwelling venous catheter in the arm opposite that into which the drug was delivered. Ten or eleven such samples were obtained at intervals up to 5 hours after the initiation of drug delivery (see FIG. 1). Urine samples were withdrawn from the patients' urinary catheter bags at 1 and 2 hours after the initiation of drug infusion.
Plasma and urine samples were stored at -80° C. until 4-AP levels were analyzed by means of column liquid chromatography, according to a technique described in detail elsewhere (Kostka et al, 1992). Briefly, both plasma and urine samples were subjected to benzoylation by the Schotten-Baumann reaction to convert 4-AP to N-benzoyl-4-AP (Bz4-AP) prior to liquid-liquid -extraction. Propionyl procainamide (PPA) was chosen as the internal standard. […]

[2] = test system: synaptic transmission in the spinal cord; conditions: relatively high concentrations; cited from earlier work
[3] = test system: spinal cord injured patients; assay: Effects reported by the subjects and overall clinical benefit (function, chronic pain, spasticity); assay type: in vivo, human
Experimental: The experimental design was a double-blind, placebo-controlled, crossover study in which each patient was administered the drug and a vehicle control on different occasions, separated by two weeks. The order of delivery was randomized.
as §1, §2

[4] = test system: spinal cord injured patients; assay: Negative side-effects, EEG and vital sign monitoring; assay type: in vivo, human
Experimental: as §1
Immediately before and after the infusion of 4-AP or placebo, and at approximately 2 hours after the end of the infusion, patients were evaluated with a set of standard electro-diagnostic tests: conduction in peroneal, posterior tibial and sural nerves, electromyography of tibial is anterior and gastroc-nemius muscles during rest and maximal voluntary contraction, and somatosensory evoked potentials. Patients were also monitored with electroencephalography, at intervals during the infusion, to look for evidence of potential for seizure activity.

[5] = subject named in the block (LJ; EB; GCh; AW)

In the case of `Nc1ccncc1` [4-AP, 4-aminopyridine], the “plasma level of 4-AP after end of infusion” value ([1]; 2-3 hours after the end of infusion, all subjects) is reported as “significant plasma level”, the “plasma level remaining relative to peak level” value ([1]; by 2 days after the infusion, from rate of decline in two patients) is reported as “less than 1%” and the “correlation of peak plasma level with dose administered” value ([1]; dose in mg/kg/hr (FIG. 2)) is reported as “correlated significantly”. For the same compound, the concentration at 48 h ([1]; human, plasma, iv, 48 hours / 2 days after second, unblinded administration, subjects, read-out: 4-AP plasma concentration (below limit of detection)) was < 3 ng/mL, the “time of peak level in the circulation” value ([1]; i.v. infusion approximately 2 hours) was “slightly before or after the end of the infusion period” and the “peak plasma level achieved for each mg/kg infused” value ([1]; i.v. infusion over approximately 2 hours, least squares regression, per mg/kg) was “approximately 0.27 mg/l”. For the same compound, the “plasma level of 4-AP the day after infusion” value ([1]; second administration, two subjects) was “detectable levels of the drug in the plasma the day after infusion”, the “correlation of time course of elimination with prolonged neurological effects” value ([1]; two subjects, 3-4 days) was “clearly did not correlate” and the “oscillation of measured drug levels” value ([1]; up to 5 hours from start of infusion, most subjects) was “some degree of oscillation of the measured drug levels; also recorded: oscillation in the measured drug levels”. The “synaptic transmission in the spinal cord” value [2] was “enhance synaptic transmission in the spinal cord”, the “reproduction of effects at second administration” value ([3]; 4 months later, two subjects GCh, EB) was “effects and side effects similar to those seen in the earlier, blinded administration; also recorded: the effects were reproduced by a second administration of the drug 4 months later in two of the subjects” and the “return to usual state” value ([3]; after infusion, subject gamma) was ≤ 3 days. The “increase in strength of arms and right leg, reported by subject” value ([3]; day after infusion, subject beta) was “about 25%”, the “delayed or prolonged effects reported” value ([3]; five patients with less complete injuries) was “all reported some delayed or prolonged effects” and the “duration of self-sustaining changes in the nervous system” value ([3]; human, in vivo) was 1 to 2 days. For the same compound, the “patients desiring to receive the drug regularly” value ([3]; human, in vivo) was “four of the patients expressed a strong desire to be able to receive the drug on a regular basis”, the “reduced usage of analgesic” value ([3]; human, in vivo) was “greatly reduced usage of analgesic in one case” and the “reduced usage of antispastic medication” value ([3]; human, in vivo) was “antispastic medication in at least two cases”. For the same compound, the “relation between side-effects and apparent benefit” value ([3]; human, in vivo) was “no relation between the appearance of side-effects and apparent benefit”, the “motor and/or sensory effects in incomplete injuries” value ([3]; remaining 5 subjects) was “showed motor and/or sensory effects” and the “duration of markedly reduced spasticity” value ([3]; second infusion, subject gamma) was “more than 24 hours”. For the same compound, the “duration of improved function” value ([3]; some subjects) was “over 48 hours”, the “reduction of chronic pain and spasticity, motor control and sensory ability (overall)” value ([3]; spinal cord injured individuals) was “relief of chronic pain and spasticity; also recorded: can increase motor control and sensory ability and reduce chronic pain and spasticity; also recorded: long lasting reductions in spasticity and in chronic pain and dysesthesias; also recorded: shown to reduce chronic pain and spasticity in certain individuals” and the “proportion of patients with incomplete injury showing benefit” value ([3]; spinal cord injury patients) was 5 of 6 and 5 of the 6. The “duration of reduction in spasticity” value ([3]; subject four) was “three days”, the “dysesthesia (persistent itch in one shoulder)” value ([3]; subject four) was “no change in this condition” and the “return to normal requirement for Baclofen” value ([3]; subject four) was “only returned to their normal requirement for Baclofen on the fourth day”. For the same compound, the “finger movements back and forth, left hand” value ([3]; subject four, normally a few flickers) was 20-30 times, the “duration of absence of pain in the legs” value ([3]; subject gamma) was “at least 2 days” and the “sensation, reported by subject” value [3, 5] was “more sensation below the level of injury; also recorded: remarkable return of sensation below the level of the injury to virtually normal sensation on both sides; also recorded: marked improvement in sensation below the lesion; also recorded: increased sensation; also recorded: more sensation and strength in their legs”. For the same compound, the “chronic pain / paresthesia, reported by subject” value ([3]; subject named in the block (LJ; GCh; GCu)) was “The usual burning pain they experienced in their buttocks was absent, though there was still some burning in their lower limbs, which had increased; also recorded: the pain in the legs was absent, though it remained to some extent in their feet; also recorded: reduction of chronic pain; also recorded: significant reduction in the usual tingling paresthesia in their hands”, the “movement / motor power, reported by subject” value ([3]; subject named in the block (b79 LJ; b81 EB; b83, b84 GCh; b86 AW; b88 GCu)) was “slightly greater movement in one thumb and index finger; also recorded: increased motor power in the left arm and leg; also recorded: greater endurance; also recorded: motor endurance below the level of the injury; also recorded: improved strength and sensation in their legs; also recorded: their arms and right leg had been stronger” and the spasticity ([3]; subject named in the block (b81 EB; b83, b84 GCh)) was “marked reduction in spasticity; also recorded: decrease in spasticity”. For the same compound, the breathing ([3]; subject two) was “marked improvement in breathing”, the “duration of motor and sensory effects incl. improved breathing” value ([3]; subject two) was “about 2 days” and the “infused dose at which lower limb strength increased” value ([3]; subject two) was 8 mg. For the same compound, the “relief of chronic, painful dysesthesias below the lesion” value ([3]; subjects, predominantly proximal in the limb) was “considerable relief”, the “beneficial effects in neurologically complete lesions” value ([3]; two patients) was “Two patients with neurologically "complete" spinal cord lesions showed no beneficial effects” and the “most frequent side effect: arm discomfort” value ([4]; arm in which the drug was infused) was “discomfort in the arm in which the drug was infused”. For the same compound, the “adverse indications on EEG and vital signs” value ([4]; during infusion) was “No adverse indications were detected”, the “duration of warm sensation under the skin from neck to back” value ([4]; subject four) was “two days” and the “side effects in individual subject” value [4, 5] was “pain in the left arm, and some nausea and light-headedness; also recorded: "warm sensation under the skin from neck to back" for two days and an episode of constipation; also recorded: no negative side effects; also recorded: After 21 mg of the infusion, their arm became quite painful and they became anxious, then angry, and began to show alternative bouts of sweating and shivering”. For the same compound, the “infusion suspended / not completed” value ([4]; subject two, 25 mg rather than planned 30 mg) was “Infusion was suspended in this case because of a combination of discomfort in the arm at the site of infusion, and a significant degree of agitation and anxiety”.
